Results taken from patent US20210254056A1, “IDENTIFICATION AND TARGETED MODULATION OF GENE SIGNALING NETWORKS” (CAMP4 THERAPEUTICS CORPORATION, priority 2017, published 2021).

Test system: hepatocytes
Experiment: RNA-seq of hepatocytes treated with Phase III failure compounds
Settings: hepatocytes
Description: RNA-seq was performed to determine the effects of the compounds on hepatocytes.
Significance was determined by the criteria of FPKM≥0.5, a log 2(fold-change)≥1, and a […].

In the case of `CCC(CC)[C@H](NC(C)=O)[C@@H]1[C@H](O)[C@@H](C(=O)O)C[C@H]1NC(=N)N.O.O.O` [peramivir (trihydrate), peramivir], the “RNA-seq results: BCKDK expression” value (gene BCKDK) is reported as −0.14, the “RNA-seq results: BCO1 expression” value (gene BCO1) is reported as −0.07 and the “RNA-seq results: BCR expression” value (gene BCR) is reported as −0.02. The “RNA-seq results: BLNK expression” value (gene BLNK) was −0.02, the “RNA-seq results: BLOC1S3 expression” value (gene BLOC1S3) was 0.01 and the “RNA-seq results: BMPR1A expression” value (gene BMPR1A) was −0.14. For the same compound, the “RNA-seq results: BRAF expression” value (gene BRAF) was −0.13, the “RNA-seq results: BSCL2 expression” value (gene BSCL2) was −1.57 and the “RNA-seq results: BTD expression” value (gene BTD) was −0.14. For the same compound, the “RNA-seq results: C4A expression” value (gene C4A) was 0.79, the “RNA-seq results: C9 expression” value (gene C9) was −0.57 and the “RNA-seq results: C10orf10 expression” value (gene C10orf10) was 0.08. For the same compound, the “RNA-seq results: C10orf11 expression” value (gene C10orf11) was −0.18, the “RNA-seq results: C15orf41 expression” value (gene C15orf41) was −0.25 and the “RNA-seq results: CA2 expression” value (gene CA2) was −0.12. For the same compound, the “RNA-seq results: CA5A expression” value (gene CA5A) was 0.03, the “RNA-seq results: CA12 expression” value (gene CA12) was −0.29 and the “RNA-seq results: CAV1 expression” value (gene CAV1) was −0.36. The “RNA-seq results: CCND1 expression” value (gene CCND1) was −0.01, the “RNA-seq results: CD46 expression” value (gene CD46) was −0.29 and the “RNA-seq results: CD81 expression” value (gene CD81) was −0.08. For the same compound, the “RNA-seq results: CD320 expression” value (gene CD320) was −0.01, the “RNA-seq results: CDAN1 expression” value (gene CDAN1) was 0.23 and the “RNA-seq results: CDH1 expression” value (gene CDH1) was 0.05. For the same compound, the “RNA-seq results: CEP19 expression” value (gene CEP19) was −0.09, the “RNA-seq results: CEP83 expression” value (gene CEP83) was −0.20 and the “RNA-seq results: CEP164 expression” value (gene CEP164) was 0.39. The “RNA-seq results: CEP290 expression” value (gene CEP290) was −0.30, the “RNA-seq results: CFB expression” value (gene CFB) was −0.13 and the “RNA-seq results: CFHR2 expression” value (gene CFHR2) was −0.38. For the same compound, the “RNA-seq results: CHRM3 expression” value (gene CHRM3) was −0.12, the “RNA-seq results: CIDEC expression” value (gene CIDEC) was −0.45 and the “RNA-seq results, CLDN1 expression” value (gene CLDN1) was −0.36. The “RNA-seq results, COG1 expression” value (gene COG1) was −0.10, the “RNA-seq results, COG5 expression” value (gene COG5) was −0.36 and the “RNA-seq results: COG5 expression” value (gene COG5) was −0.22. For the same compound, the “RNA-seq results, COG6 expression” value (gene COG6) was −0.54, the “RNA-seq results: COG6 expression” value (gene COG6) was −0.08 and the “RNA-seq results, COL1A1 expression” value (gene COL1A1) was 0.33. The “RNA-seq results: COL1A1 expression” value (gene COL1A1) was 0.09, the “RNA-seq results, COX6A1 expression” value (gene COX6A1) was 0.39 and the “RNA-seq results: COX6A1 expression” value (gene COX6A1) was −0.01. The “RNA-seq results, CP expression” value (gene CP) was −0.09, the “RNA-seq results: CP expression” value (gene CP) was −0.27 and the “RNA-seq results, CPS1 expression” value (gene CPS1) was 0.01. For the same compound, the “RNA-seq results: CPS1 expression” value (gene CPS1) was −0.63, the “RNA-seq results, CPT1A expression” value (gene CPT1A) was −0.10 and the “RNA-seq results: CPT1A expression” value (gene CPT1A) was 0.13. The “RNA-seq results, CPT2 expression” value (gene CPT2) was −0.19, the “RNA-seq results: CPT2 expression” value (gene CPT2) was 0.05 and the “RNA-seq results, CROT expression” value (gene CROT) was −0.25. The “RNA-seq results: CROT expression” value (gene CROT) was −0.4, the “RNA-seq results, CSPP1 expression” value (gene CSPP1) was −0.06 and the “RNA-seq results: CSPP1 expression” value (gene CSPP1) was −0.05. The “RNA-seq results, CTC1 expression” value (gene CTC1) was 0.10, the “RNA-seq results: CTC1 expression” value (gene CTC1) was 0.2 and the “RNA-seq results, CTDSP2 expression” value (gene CTDSP2) was 0.00. The “RNA-seq results: CTDSP2 expression” value (gene CTDSP2) was −0.07, the “RNA-seq results, CTH expression” value (gene CTH) was 0.06 and the “RNA-seq results: CTH expression” value (gene CTH) was 0.6. For the same compound, the “RNA-seq results, CTNS expression” value (gene CTNS) was −0.25, the “RNA-seq results: CTNS expression” value (gene CTNS) was 0.65 and the “RNA-seq results, CTSF expression” value (gene CTSF) was 0.21. The “RNA-seq results: CTSF expression” value (gene CTSF) was 0.3, the “RNA-seq results, CTSK expression” value (gene CTSK) was 0.28 and the “RNA-seq results: CTSK expression” value (gene CTSK) was 0.04. The “RNA-seq results, CYB5A expression” value (gene CYB5A) was 0.01, the “RNA-seq results: CYB5A expression” value (gene CYB5A) was 0.34 and the “RNA-seq results, CYB5R3 expression” value (gene CYB5R3) was 0.00. For the same compound, the “RNA-seq results: CYB5R3 expression” value (gene CYB5R3) was 0.13, the “RNA-seq results, CYP2B6 expression” value (gene CYP2B6) was 0.07 and the “RNA-seq results: CYP2B6 expression” value (gene CYP2B6) was 0.12. For the same compound, the “RNA-seq results, CYP2C19 expression” value (gene CYP2C19) was 0.25, the “RNA-seq results: CYP2C19 expression” value (gene CYP2C19) was −0.31 and the “RNA-seq results, CYP2D6 expression” value (gene CYP2D6) was 0.24. The “RNA-seq results: CYP2D6 expression” value (gene CYP2D6) was 0.22, the “RNA-seq results, CYP3A4 expression” value (gene CYP3A4) was −0.53 and the “RNA-seq results: CYP3A4 expression” value (gene CYP3A4) was 0.77. The “RNA-seq results, CYP7B1 expression” value (gene CYP7B1) was −0.16, the “RNA-seq results: CYP7B1 expression” value (gene CYP7B1) was −0.34 and the “RNA-seq results, CYP27A1 expression” value (gene CYP27A1) was −0.21. For the same compound, the “RNA-seq results: CYP27A1 expression” value (gene CYP27A1) was 0.28, the “RNA-seq results, CYP39A1 expression” value (gene CYP39A1) was −0.20 and the “RNA-seq results: CYP39A1 expression” value (gene CYP39A1) was −0.11. For the same compound, the “RNA-seq results, DAO expression” value (gene DAO) was 0.00, the “RNA-seq results: DAO expression” value (gene DAO) was 0.13 and the “RNA-seq results, DBT expression” value (gene DBT) was −0.24. The “RNA-seq results: DBT expression” value (gene DBT) was −0.32, the “RNA-seq results, DCDC2 expression” value (gene DCDC2) was −0.04 and the “RNA-seq results: DCDC2 expression” value (gene DCDC2) was −0.6. For the same compound, the “RNA-seq results, DCXR expression” value (gene DCXR) was −0.20, the “RNA-seq results: DCXR expression” value (gene DCXR) was 0.16 and the “RNA-seq results, DDC expression” value (gene DDC) was −0.41. For the same compound, the “RNA-seq results: DDC expression” value (gene DDC) was −0.25, the “RNA-seq results, DDO expression” value (gene DDO) was 0.12 and the “RNA-seq results: DDO expression” value (gene DDO) was 0.12. The “RNA-seq results, DENR expression” value (gene DENR) was −0.36, the “RNA-seq results: DENR expression” value (gene DENR) was −0.13 and the “RNA-seq results, DHCR7 expression” value (gene DHCR7) was 0.04. The “RNA-seq results: DHCR7 expression” value (gene DHCR7) was 0.32, the “RNA-seq results, DHCR24 expression” value (gene DHCR24) was −0.16 and the “RNA-seq results: DHCR24 expression” value (gene DHCR24) was −0.14. For the same compound, the “RNA-seq results, DHODH expression” value (gene DHODH) was 0.27, the “RNA-seq results: DHODH expression” value (gene DHODH) was 0.22 and the “RNA-seq results, DIS3L2 expression” value (gene DIS3L2) was −0.14. The “RNA-seq results: DIS3L2 expression” value (gene DIS3L2) was −0.14, the “RNA-seq results, DKC1 expression” value (gene DKC1) was −0.11 and the “RNA-seq results: DKC1 expression” value (gene DKC1) was −0.05. For the same compound, the “RNA-seq results, DLAT expression” value (gene DLAT) was −0.15, the “RNA-seq results: DLAT expression” value (gene DLAT) was −0.21 and the “RNA-seq results, DLD expression” value (gene DLD) was −0.35. For the same compound, the “RNA-seq results: DLD expression” value (gene DLD) was −0.3, the “RNA-seq results, DMGDH expression” value (gene DMGDH) was −0.11 and the “RNA-seq results: DMGDH expression” value (gene DMGDH) was −0.15. The “RNA-seq results, DNAH5 expression” value (gene DNAH5) was −0.05, the “RNA-seq results: DNAH5 expression” value (gene DNAH5) was −0.1 and the “RNA-seq results, DNM1L expression” value (gene DNM1L) was −0.28. The “RNA-seq results: DNM1L expression” value (gene DNM1L) was −0.12 and the “RNA-seq results, DOLK expression” value (gene DOLK) was 0.09.
